± gives the uncertainty stated by the source.
Assay: xn = mol fraction of the nth substance listed

C1CCCC1 + C1CCCCC1
303.15 K, 101 kPa
Conditions	viscosity [mPa·s]
x1 = 0.1022	0.7604 ± 0.0049
x1 = 0.2029	0.6988 ± 0.0046
x1 = 0.2998	0.6457 ± 0.0044
x1 = 0.3944	0.599 ± 0.0042
x1 = 0.4949	0.5545 ± 0.004
x1 = 0.5917	0.5159 ± 0.0038
x1 = 0.6949	0.4788 ± 0.0037
x1 = 0.7843	0.4494 ± 0.0036
x1 = 0.8966	0.4147 ± 0.0034

COC(=O)CCCCC(=O)OC + C1CCOC1
viscosity [mPa·s], 101 kPa
Conditions	293.15 K	298.15 K	303.15 K	308.15 K	313.15 K	318.15 K	323.15 K
x1 = 0.1	0.6562 ± 0.02	0.6229 ± 0.019	0.5909 ± 0.018	0.5598 ± 0.017	0.5294 ± 0.016	0.4989 ± 0.015	0.4706 ± 0.015
x1 = 0.2	0.8354 ± 0.026	0.7852 ± 0.024	0.7403 ± 0.023	0.6982 ± 0.021	0.6588 ± 0.02	0.6205 ± 0.019	0.5877 ± 0.018
x1 = 0.3	1.042 ± 0.032	0.9731 ± 0.03	0.9111 ± 0.028	0.8539 ± 0.026	0.8024 ± 0.025	0.7543 ± 0.023	0.7132 ± 0.022
x1 = 0.3994	1.277 ± 0.039	1.183 ± 0.036	1.1 ± 0.034	1.026 ± 0.032	0.958 ± 0.029	0.906 ± 0.028	0.8459 ± 0.026
x1 = 0.5001	1.545 ± 0.047	1.42 ± 0.044	1.311 ± 0.04	1.217 ± 0.037	1.134 ± 0.035	1.063 ± 0.033	0.9929 ± 0.031
x1 = 0.5909	1.811 ± 0.056	1.652 ± 0.051	1.517 ± 0.047	1.4 ± 0.043	1.299 ± 0.04	1.206 ± 0.037	1.132 ± 0.035
x1 = 0.5999	1.838 ± 0.056	1.676 ± 0.051	1.541 ± 0.047	1.421 ± 0.044	1.315 ± 0.041	1.221 ± 0.038	1.146 ± 0.035
x1 = 0.7003	2.163 ± 0.067	1.956 ± 0.06	1.78 ± 0.055	1.63 ± 0.05	1.506 ± 0.046	1.382 ± 0.043	1.302 ± 0.04
x1 = 0.7999	2.514 ± 0.077	2.255 ± 0.069	2.042 ± 0.063	1.858 ± 0.057	1.7 ± 0.052	1.556 ± 0.048	1.458 ± 0.045
x1 = 0.8937	2.866 ± 0.088	2.555 ± 0.079	2.298 ± 0.071	2.08 ± 0.064	1.892 ± 0.058	1.731 ± 0.053	1.609 ± 0.05
x1 = 0.8996	2.888 ± 0.089	2.574 ± 0.079	2.314 ± 0.071	2.095 ± 0.065	1.905 ± 0.059	1.742 ± 0.054	1.619 ± 0.05

NCCO + C1COCCO1
101 kPa
Conditions	viscosity [mPa·s]
298.15 K, x2 = 0.0597	16.05 ± 0.49
318.15 K, x2 = 0.5716	2.255 ± 0.069

OCc1ccccc1 + C1COCCO1
viscosity [mPa·s], 101 kPa
Conditions	x1 = 0.201	x1 = 0.2986	x1 = 0.4001	x1 = 0.4991	x1 = 0.7017	x1 = 0.9009
303.15 K	1.398 ± 0.068	1.609 ± 0.078	1.842 ± 0.088	2.149 ± 0.1	2.975 ± 0.14	4.03 ± 0.19
308.15 K	1.288 ± 0.063	1.456 ± 0.071	1.679 ± 0.081	1.92 ± 0.092	2.615 ± 0.12	3.54 ± 0.17
313.15 K	1.178 ± 0.058	1.385 ± 0.068	1.553 ± 0.075	1.797 ± 0.086	2.387 ± 0.11	3.199 ± 0.15

C1CCCC1 + C1COCO1
viscosity [mPa·s], 101.3 kPa
Conditions	x1 = 0.0988	x1 = 0.1997	x1 = 0.3005	x1 = 0.3997	x1 = 0.4992	x1 = 0.5979	x1 = 0.7027	x1 = 0.7987	x1 = 0.8995
298.15 K	0.5513 ± 0.0052	0.5176 ± 0.005	0.4908 ± 0.0048	0.4685 ± 0.0047	0.4495 ± 0.0046	0.434 ± 0.0045	0.4216 ± 0.0044	0.4149 ± 0.0044	0.4124 ± 0.0044
313.15 K	0.4666 ± 0.0046	0.438 ± 0.0044	0.415 ± 0.0042	0.3968 ± 0.0041	0.3804 ± 0.004	0.3679 ± 0.004	0.3581 ± 0.0039	0.352 ± 0.0039	0.351 ± 0.0039

CCC(C)CC(C)C (stereo unspecified) + C1C[C@@H]2[C@H]3CC[C@H](C3)[C@@H]2C1
viscosity [mPa·s], 100 kPa
Conditions	x2 = 0.1017	x2 = 0.2008	x2 = 0.3005	x2 = 0.4002	x2 = 0.5006	x2 = 0.6001	x2 = 0.7001	x2 = 0.8012	x2 = 0.8999
293.15 K	0.538 ± 0.012	0.616 ± 0.013	0.717 ± 0.016	0.847 ± 0.018	1.007 ± 0.022	1.216 ± 0.026	1.478 ± 0.032	1.84 ± 0.04	2.322 ± 0.051
298.15 K	0.511 ± 0.011	0.582 ± 0.013	0.674 ± 0.015	0.792 ± 0.017	0.937 ± 0.02	1.126 ± 0.024	1.361 ± 0.03	1.685 ± 0.037	2.114 ± 0.046
303.15 K	0.487 ± 0.011	0.552 ± 0.012	0.636 ± 0.014	0.744 ± 0.016	0.876 ± 0.019	1.048 ± 0.023	1.261 ± 0.027	1.552 ± 0.034	1.937 ± 0.042
308.15 K	0.465 ± 0.01	0.524 ± 0.011	0.602 ± 0.013	0.7 ± 0.015	0.822 ± 0.018	0.979 ± 0.021	1.171 ± 0.025	1.435 ± 0.031	1.781 ± 0.039
313.15 K	0.445 ± 0.01	0.5 ± 0.011	0.571 ± 0.012	0.662 ± 0.014	0.772 ± 0.017	0.916 ± 0.02	1.092 ± 0.024	1.331 ± 0.029	1.645 ± 0.036

CCC(=O)CC + CC(=O)CC(C)C
298.15 K, 101 kPa
Conditions	viscosity [mPa·s]
x2 = 0.0749	0.581 ± 0.006
x2 = 0.1609	0.575 ± 0.006
x2 = 0.3004	0.571 ± 0.006
x2 = 0.4466	0.566 ± 0.006
x2 = 0.5932	0.562 ± 0.006
x2 = 0.7509	0.558 ± 0.006
x2 = 0.8066	0.553 ± 0.006
x2 = 0.8789	0.548 ± 0.006

C1CCCC1 + CC(C)=O
viscosity [mPa·s], 101.33 kPa
Conditions	293.15 K	298.15 K	303.15 K
x1 = 0.0453	0.318 ± 0.006	0.308 ± 0.006	0.29 ± 0.006
x1 = 0.0935	0.319 ± 0.006	0.304 ± 0.006	0.291 ± 0.006
x1 = 0.1869	0.319 ± 0.007	0.304 ± 0.006	0.289 ± 0.006
x1 = 0.2786	0.324 ± 0.007	0.309 ± 0.006	0.294 ± 0.006
x1 = 0.3922	0.333 ± 0.007	0.318 ± 0.007	0.303 ± 0.006
x1 = 0.517	0.344 ± 0.007	0.327 ± 0.007	0.311 ± 0.006
x1 = 0.6026	0.357 ± 0.007	0.338 ± 0.007	0.321 ± 0.007
x1 = 0.6876	0.367 ± 0.007	0.347 ± 0.007	0.332 ± 0.007
x1 = 0.795	0.385 ± 0.008	0.365 ± 0.007	0.347 ± 0.007
x1 = 0.9016	0.408 ± 0.008	0.39 ± 0.008	0.37 ± 0.007
x1 = 0.9511	0.419 ± 0.008	0.397 ± 0.008	0.377 ± 0.008

Nc1ccccc1[N+](=O)[O-] + CC(C)=O
viscosity [mPa·s], 101 kPa
Conditions	298.15 K	303.15 K	308.15 K	313.15 K
x1 = 0.3297	1.229 ± 0.031	1.142 ± 0.029	1.059 ± 0.027	0.9826 ± 0.025
x1 = 0.5407	2.366 ± 0.06	2.175 ± 0.055	1.994 ± 0.05	1.817 ± 0.046

OCc1ccccc1 + CC(C)=O
viscosity [mPa·s], 101 kPa
Conditions	x1 = 0.2007	x1 = 0.2986	x1 = 0.4007	x1 = 0.5002	x1 = 0.7013	x1 = 0.9003
303.15 K	0.506 ± 0.029	0.651 ± 0.035	0.894 ± 0.046	1.204 ± 0.06	2.122 ± 0.1	3.544 ± 0.17
308.15 K	0.495 ± 0.028	0.632 ± 0.034	0.861 ± 0.045	1.11 ± 0.056	1.857 ± 0.09	3.118 ± 0.15
313.15 K	0.479 ± 0.027	0.603 ± 0.033	0.807 ± 0.042	1.054 ± 0.053	1.74 ± 0.084	2.826 ± 0.13
